The target of series [1] is T1, Beta-1,4-galactosyltransferase 1 (Bos taurus) (UniProt P08037).
T1 sequence (whole entry): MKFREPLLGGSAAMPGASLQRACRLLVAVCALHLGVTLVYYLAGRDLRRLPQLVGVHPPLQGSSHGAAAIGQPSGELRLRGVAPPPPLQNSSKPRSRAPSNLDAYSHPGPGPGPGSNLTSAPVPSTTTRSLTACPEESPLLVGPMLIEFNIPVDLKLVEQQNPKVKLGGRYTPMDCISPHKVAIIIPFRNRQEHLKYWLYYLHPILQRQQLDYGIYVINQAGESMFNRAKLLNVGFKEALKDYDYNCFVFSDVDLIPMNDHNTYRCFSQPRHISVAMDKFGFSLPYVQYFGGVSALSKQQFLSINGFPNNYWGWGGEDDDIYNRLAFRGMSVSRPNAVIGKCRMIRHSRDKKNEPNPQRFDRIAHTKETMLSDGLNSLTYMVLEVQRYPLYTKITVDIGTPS
As to the kind of experiment: Inhibition of bovine milk Beta-1,4-galactosyltransferase at 0.5 mM in presence of UDP-[3H]Gal and GlcNAc-beta-Bn after 1 hr by scintillation counting method.

In series [2] the test system is Pseudomonas aeruginosa. Description: Antimicrobial activity against Pseudomonas aeruginosa PAO1 assessed as inhibition of colony formation at 50 uM preincubated for 4 hrs and measured after overnight incubation by CFU assay. In kind it is functional.
A short description of series [3]: Growth inhibition of human OC-3-VGH cells at 1 mM after 24 hrs by MTT assay. To be noted: read-out: GI. In kind it is cell-based. Background: Tetrazolium dyes change colour on reduction, which living cells bring about.
Series [4] concerns Escherichia coli. Description: Inhibition of recombinant Escherichia coli O104:H4 Beta-1,3-galactosyltransferase WbwC expressed in Escherichia coli BL21 at 0.5 mM in presence of UDP-[3H]Gal and GalNAC-PO3-PO3-(CH2)11-O-phenyl after 1 hr by scintillation counting method relative to control.
The nature of series [5]: Inhibition of recombinant Escherichia coli O104:H4 Beta-1,3-galactosyltransferase WbwC expressed in Escherichia coli BL21 in presence of UDP-[3H]Gal and GalNAC-PO3-PO3-(CH2)11-O-phenyl after 1 hr by scintillation counting method.
For series [6], the system named is Escherichia coli. Description: Antimicrobial activity against Escherichia coli BL21 assessed as inhibition of colony formation at 5 uM preincubated for 4 hrs and measured after overnight incubation by CFU assay. Format: functional.
In series [7] the test system is Pseudomonas aeruginosa. As to the kind of experiment: Antimicrobial activity against Pseudomonas aeruginosa PAO1 assessed as inhibition of colony formation at 5 uM preincubated for 4 hrs and measured after overnight incubation by CFU assay. In kind it is functional.
For series [8], the system named is Bacillus subtilis. As to the kind of experiment: Antimicrobial activity against Bacillus subtilis assessed as inhibition of colony formation at 5 uM preincubated for 4 hrs and measured after overnight incubation by CFU assay. Format: functional.
In series [9] the test system is Staphylococcus epidermidis. Description: Antimicrobial activity against Staphylococcus epidermidis assessed as inhibition of colony formation at 5 uM preincubated for 4 hrs and measured after overnight incubation by CFU assay. In kind it is functional.
The subject of series [10] is Escherichia coli. Description: Antimicrobial activity against Escherichia coli BL21 assessed as inhibition of colony formation at 10 uM preincubated for 4 hrs and measured after overnight incubation by CFU assay. In kind it is functional.
For series [11], the system named is Escherichia coli. As to the kind of experiment: Antimicrobial activity against Escherichia coli BL21 assessed as inhibition of colony formation at 25 uM preincubated for 4 hrs and measured after overnight incubation by CFU assay. Format: functional.
Series [12] relates to Pseudomonas aeruginosa. As to the kind of experiment: Antimicrobial activity against Pseudomonas aeruginosa PAO1 assessed as inhibition of colony formation at 10 uM preincubated for 4 hrs and measured after overnight incubation by CFU assay. Format: functional.
Series [13] has as its system Pseudomonas aeruginosa. Description: Antimicrobial activity against Pseudomonas aeruginosa PAO1 assessed as inhibition of colony formation at 25 uM preincubated for 4 hrs and measured after overnight incubation by CFU assay. In kind it is functional.
Series [14] deals with Bacillus subtilis. Description: Antimicrobial activity against Bacillus subtilis assessed as inhibition of colony formation at 10 uM preincubated for 4 hrs and measured after overnight incubation by CFU assay. Format: functional.
Series [15] has as its system Bacillus subtilis. Description: Antimicrobial activity against Bacillus subtilis assessed as inhibition of colony formation at 25 uM preincubated for 4 hrs and measured after overnight incubation by CFU assay. In kind it is functional.
Series [16] concerns Staphylococcus epidermidis. Description: Antimicrobial activity against Staphylococcus epidermidis assessed as inhibition of colony formation at 10 uM preincubated for 4 hrs and measured after overnight incubation by CFU assay. In kind it is functional.
Series [17] concerns Staphylococcus epidermidis. Description: Antimicrobial activity against Staphylococcus epidermidis assessed as inhibition of colony formation at 25 uM preincubated for 4 hrs and measured after overnight incubation by CFU assay. In kind it is functional.
Series [18] is described as follows: Growth inhibition of human OC-3-VGH cells at 0.5 mM after 24 hrs by MTT assay. In kind it is cell-based. The settings on record: read-out: GI.
Series [19] has as its system OC-3-VGH. As to the kind of experiment: Growth inhibition of human OC-3-VGH cells after 24 hrs by MTT assay. Format: cell-based.
For series [20], the system named is PC-3. As to the kind of experiment: Growth inhibition of human PC3 cells at 0.5 mM after 24 hrs by MTT assay. Format: cell-based. To be noted: pc-3, 24 h, 500 µM.
Series [21] has as its system PC-3. Description: Growth inhibition of human PC3 cells after 24 hrs by MTT assay. In kind it is cell-based. To be noted: pc-3, 24 h.
Series [22] deals with A549. As to the kind of experiment: Growth inhibition of human A549 cells at 0.5 mM after 24 hrs by MTT assay. The settings on record: a549, 24 h, 500 µM. In kind it is cell-based.
Series [23] deals with A549. Description: Growth inhibition of human A549 cells after 24 hrs by MTT assay. In kind it is cell-based. To be noted: a549, 24 h.
Series [24] concerns AD293. As to the kind of experiment: Growth inhibition of human AD293 cells at 0.5 mM after 24 hrs by MTT assay. Format: cell-based. To be noted: ad293, 24 h, 500 µM.
The test system of series [25] is AD293. As to the kind of experiment: Growth inhibition of human AD293 cells after 24 hrs by MTT assay. Format: cell-based. To be noted: ad293, 24 h.
The subject of series [26] is OC-3-VGH. As to the kind of experiment: Inhibition of cell migration in human OC-3-VGH cells at 500 uM incubated for 18 hrs by scratch wound healing assay. In kind it is cell-based.
For series [27], the system named is OC-3-VGH. Description: Growth inhibition of human OC-3-VGH cells at 50 uM after 24 hrs by MTT assay. Format: cell-based.
The test system of series [28] is A549. As to the kind of experiment: Growth inhibition of human A549 cells at 50 uM after 24 hrs by MTT assay. Format: cell-based. The settings on record: a549, 24 h.
Series [29] deals with AD293. Description: Growth inhibition of human AD293 cells at 50 uM after 24 hrs by MTT assay. In kind it is cell-based. To be noted: ad293, 24 h.

The source made the active and inactive calls. The rule behind the calls is not given here.

`CCCC(=O)N[C@@H]1[C@@H](O)[C@H](O)[C@@H](CO)O[C@H]1Sc1ccc2ccccc2c1`: the inhibition entry (in series [1]; in the series with Pseudomonas aeruginosa [2]) was “inactive” throughout. Further, the inhibition at 24 h, 1000 µM in [3] is 50%.
With `CCCCCCCC[n+]1ccn(CCCCCCCCCCn2cc[n+](CCCCCCCC)c2)c1`, the inhibition with Escherichia coli [4] stood at 64%. Also, the IC50 in series [5] was found to be 123 µM. Further, the inhibition at 5 µM with Escherichia coli [6] came to 100%; with Pseudomonas aeruginosa [7] it was 96%; with Bacillus subtilis [8] it was 100%; in [9] it was 100%. For the same compound, the inhibition at 10 µM (in the series on Escherichia coli [10]; in the series with Pseudomonas aeruginosa [12]; in the series on Bacillus subtilis [14]; in series [16]) was 100% each time. Also, the inhibition at 25 µM (with Escherichia coli [11]; in the series on Pseudomonas aeruginosa [13]; with Bacillus subtilis [15]; in [17]) was 100% in each case.
Consider `CS(=O)(=O)[O-].CS(=O)(=O)[O-].C[n+]1ccn(CCCCCCCCCCCCCCCCCCCCn2cc[n+](C)c2)c1`, for which, in the series on Escherichia coli [4], the inhibition stood at 91%. For the same compound, the IC50 in series [5] was 230 µM; in the series on OC-3-VGH [19], 5 to 12 µM. The inhibition at 50 µM in the series with Pseudomonas aeruginosa [2] was above 90%. Moreover, the inhibition at 24 h, 500 µM in series [18] turned out to be 80%. The “growth inhibition (GI)” value with PC-3 [20], with PC-3 [21], with A549 [22], in the series on A549 [23], with AD293 [24] and in the series on AD293 [25] was “Toxic” in each case. In the series with OC-3-VGH [26], the “inhibition (INH)” value is given as “Active”.
Consider `C[n+]1ccn(CCCCCCCCCCCCCCn2cc[n+](C)c2)c1`, for which the inhibition in the series on Escherichia coli [4] was 10%. Besides, the inhibition at 5 µM in the series with Escherichia coli [6] was 0%; in the series on Pseudomonas aeruginosa [7] it was 0%; in the series on Bacillus subtilis [8], 8%; in series [9], 0%. Moreover, the inhibition at 10 µM in the series with Escherichia coli [10] stood at 32%; with Pseudomonas aeruginosa [12] it was 4%; in the series on Bacillus subtilis [14], 20%; in series [16], 0%. Besides, the inhibition at 25 µM in the series with Escherichia coli [11] is 51%; with Pseudomonas aeruginosa [13], 22%; in the series on Bacillus subtilis [15], 51%; in series [17], 0%.
For `c1cn(CCCCCCCCCCCCCCCCn2ccnc2)cn1`, the “growth inhibition (GI)” value with OC-3-VGH [27], in the series on A549 [28] and with AD293 [29] was “Non-Toxic” each time.
In the case of `C[n+]1ccn(CCCCCCCCCCCCCCCCCCn2cc[n+](C)c2)c1.[Cl-].[Cl-]`, the inhibition in the series with Escherichia coli [4] is below 1%. Also, the inhibition at 24 h, 500 µM in [18] is 80%. Moreover, the IC50 in the series on OC-3-VGH [19] was in the range of 5 to 12 µM. For the same compound, the “growth inhibition (GI)” value with PC-3 [20], in the series with PC-3 [21], in the series on A549 [22], in the series on A549 [23], in the series with AD293 [24] and in the series on AD293 [25] was “Toxic” in each case.
With `c1cn(CCCCCCCCCCCCCCCCCCCCn2ccnc2)cn1`, the “growth inhibition (GI)” value with OC-3-VGH [27], with A549 [28] and in the series on AD293 [29] was “Non-Toxic” each time.
On to `CCCCCCCCCCC[n+]1ccn(CCCCCCCCCCCCCCCCn2cc[n+](CCCCCCCCCCC)c2)c1`, for which the inhibition with Escherichia coli [4] turned out to be 92%. In addition, the IC50 in [5] was 123 µM. Moreover, the inhibition at 5 µM in the series on Escherichia coli [6] came out at 100%; with Pseudomonas aeruginosa [7] it was 28%; with Bacillus subtilis [8], 100%; in [9], 100%. In addition, the inhibition at 10 µM in the series with Escherichia coli [10] was 100%; in the series with Pseudomonas aeruginosa [12], 77%; in the series on Bacillus subtilis [14] it was 100%; in series [16] it was 100%. Further, the inhibition at 25 µM (with Escherichia coli [11]; with Pseudomonas aeruginosa [13]; in the series on Bacillus subtilis [15]; in series [17]) was 100% each time.
For `CCCCCCCCCCCC[n+]1ccn(CCCCCCCCCCn2cc[n+](CCCCCCCCCCCC)c2)c1`, the inhibition in the series with Escherichia coli [4] amounted to 91%. Besides, the IC50 in [5] is 59 µM. Besides, the inhibition result in series [1] is “Active”. Further, the inhibition at 5 µM is 100% in the series on Escherichia coli [6], above 98% in the series on Pseudomonas aeruginosa [7], 100% with Bacillus subtilis [8] and 100% in series [9]. For the same compound, the inhibition at 10 µM (in the series on Escherichia coli [10]; in the series on Pseudomonas aeruginosa [12]; in the series with Bacillus subtilis [14]; in series [16]) was 100% throughout. Besides, the inhibition at 25 µM was 100% with Escherichia coli [11], below 98% in the series on Pseudomonas aeruginosa [13], 100% with Bacillus subtilis [15] and 100% in series [17].
In the case of `c1cn(CCCCCCCCCCCCCCCCCCn2ccnc2)cn1`, the “growth inhibition (GI)” value in the series with OC-3-VGH [27], with A549 [28] and in the series with AD293 [29] was “Non-Toxic” each time.

The IC50 is the concentration needed to halve the response being measured.

These data come from ChEMBL document CHEMBL4622844, “Inhibition of bacterial growth and galactosyltransferase activity of WbwC by α, ω-bis(3-alkyl-1H-imidazolium)alkane salts: Effect of varying carbon content” (Bioorg Med Chem, 2020).
